Article PMC9321663, “The DevTox Germ Layer Reporter Platform: An Assay Adaptation of the Human Pluripotent Stem Cell Test” (Toxics, 2022)
Read-outs that look alike come from different tables or passages of the source. Starred links: 1 amine or outer side, 2 acyl side, 3 side chain; linkers in the order of their positions; H or OH if unused. Positions of bridges follow the written chain, without caps; N, C: chain ends. Non-standard residues stand in square brackets, D forms with d. Residues, ends and D or L forms follow the SMILES beside them. Chains are numbered I, II in the order given. Actinocin(9to1) = Cc1c2oc3c(C)ccc(C(=O)[*:1])c3nc-2c(C(=O)[*:2])c(N)c1=O; NMeV = CN[C@H](C(=O)O)C(C)C; Sar = CNCC(=O)O

Columns and labels:
[1] = test system: SOX17 (endoderm marker) in RUES2-GLR cells; test: DevTox GLR-Endo assay: increase in percent SOX17-positive cells (AEID 3093, Sox17_up); assay type: cell-based, human; details: for Emax: Homo sapiens; for HIT−CALL: tcpl plot AEID3093, COFF 20.3
Protocol: The total test chemical incubation period was 48 h.
(Supplementary Materials).

[2] = DevTox GLR-Endo assay: decrease in total cell count, cytotoxicity (AEID 3098, CellCount_dn); details: human
RUES2-GLR cells = test: as above; details: for Emax: Homo sapiens, read-out: Cell Count % Max Inhibition
H9 human ESC line = details: cited from earlier work
[3] = test system: SOX2 (ectoderm and pluripotency marker) in RUES2-GLR cells; test: DevTox GLR-Endo assay: increase in percent SOX2-positive cells (AEID 3095, Sox2_up); details: for AC50 / Emax: Homo sapiens; for AC50: read-out: ga (winning model); for Emax: read-out: tp (winning model); for MAX_MEAN: tcpl plot AEID3095, maximum mean response; for MAX_MED: tcpl plot AEID3095, maximum median response;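 for all read-outs here: cells exposed to test chemicals for 48 h in total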
[4] = test system: SOX17 (endoderm marker) in RUES2-GLR cells; test: DevTox GLR-Endo assay: decrease in percent SOX17-positive cells (AEID 3094, Sox17_dn); details: for Hit Call: Table S2, SOX17-positive cells, cutoff 3*bmad; for DevTox ACC: Table S2, percent SOX17-positive cells; for HIT−CALL: tcpl plot AEID3094, COFF 20.3
How it was run: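 Readouts are loss of SOX17-positive fraction and reduced cell number in endoderm-differentiating RUES2-GLR cells after 48 h of chemical exposure. Controls: undifferentiated and differentiated cells, 0.2% DMSO, and 1 µM SB431542; at least four biological replicates.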

[5] = cited from earlier work; for Development Toxicant Classification: Table S2; for Classification: developmental toxicant classification (Teratogen / Non-Teratogen) of reference and training chemicals, ref DOI per chemical: 10.1093/toxsci/kft239, 10.1093/toxsci/kfaa014, 10.1177/026119290203000204, 10.1038/s41598-020-59542-x; for DT Class.: developmental toxicant classification, chemicals common with hPST
[6] = test system: SOX17 in H9 human ESC line; details: SOX17 half-maximal inhibition concentration; read-out: hPST IC50; cited from earlier work
[7] = tcpl plot AEID3093, maximum mean response, read-out: MAX_MEAN
[8] = tcpl plot AEID3093, maximum median response, read-out: MAX_MED
[9] = RUES2-GLR cells under directed endoderm differentiation
[10] = cytotoxicity half-maximal concentration
[11] = Homo sapiens, 48 h, read-out: DevTox-GLR Endo AC50 (µM), SOX17 half-maximal activity concentration, 48 h exposure
[12] = Homo sapiens, read-out: DevTox % Max Inhibition
[13] = Homo sapiens, read-out: MAX_MEAN
[14] = Homo sapiens, read-out: MAX_MED
[15] = Homo sapiens, read-out: ga (winning model), tcpl plot AEID3094, gain parameter of winning curve fit (log concentration, µM axis), hit calls only (converted)
[16] = Homo sapiens, read-out: tp (winning model)

Compound | Emax [1, 7] [%] | HIT−CALL [1] | Emax (RUES2-GLR cells) [%] | hPST TC50 (H9 human ESC line; [10]) [µM] | hPST TC50 (H9 human ESC line; hPST cytotoxicity) [µM] | AC50 [3] [µM] | Emax [3] [%] | MAX_MEAN [3] [Percent Activity] | MAX_MED [3] [Percent Activity] | Emax [4, 12] [%] | Emax [4, 13] [%] | Emax [4, 14] [%] | Emax [4, 16] [%] | Hit Call [4] | DevTox ACC ([4]; 48 h exposure) [µM] | HIT−CALL [4] | Development Toxicant Classification [5] | Classification [5] | DT Class. [5] | IC50 [6] [µM] | other results
COc1cc2c(Nc3ccc(Br)cc3F)ncnc2cc1OCC1CCN(C)CC1 [Vandetanib] | 7.33 | 0 | 98.3 | 4.4 | 4.4 | 7.23 | 23.1 | 10.9 | 10.8 | 102 | 102 | 102 | 101 | Positive | 4.123 | 1 | Positive | Teratogen | Pos | 3.5 | Emax [1, 8]: 9.78%; CC50 at 48 h [2, 9]: 4.32 µM; Cell Count ACC (RUES2-GLR cells; Table S2, 48 h exposure): 2.124 µM; AC50 [4, 11]: 4.9 µM; AC50 [4, 15]: 4.91 µM
CNC(=O)c1cc(Oc2ccc(NC(=O)Nc3ccc(Cl)c(C(F)(F)F)c3)cc2)ccn1 [Sorafenib] | 8.73 | 0 | 95.8 | <2 | < 2 | 0.748 | 8.9 | 13.6 | 11.9 | 102 | 102 | 102 | 101 | Positive | 0.5004 | 1 | Positive | Teratogen | Pos | < 2 | Emax [1, 8]: 9.19%; CC50 at 48 h [2, 9]: 0.61 µM; Cell Count ACC (RUES2-GLR cells; Table S2, 48 h exposure): 0.4993 µM; AC50 [4, 11]: 0.62 µM; AC50 [4, 15]: 0.618 µM
COc1ccc2nc([S@@+]([O-])Cc3ncc(C)c(OC)c3C)[nH]c2c1 [Esomeprazole] | 0.101 | 0 | 94 | 101 | 101 | 69.2 | 17.4 | 23.9 | 21.6 | 101 | 101 | 101 | 123 | Positive | 12.9286 | 1 | Negative | Non-Teratogen | Neg | 32 | Emax [1, 8]: 1.23%; CC50 at 48 h [2, 9]: 38.5 µM; Cell Count ACC (RUES2-GLR cells; human, 48 h): 28.1982 µM; SOX17 ACC relative to cytotoxic concentration (in words) [4]: below cytotoxic concentrations; hit call designation (in words) ([4]; DevTox GLR-Endo prediction against developmental toxicant classification): false positive; AC50 [4, 11]: 34 µM; AC50 [4, 15]: 33.9 µM; Emax ([4]; Homo sapiens, read-out: maximum observed effect level class (% max inhibition)): 80 to 100%; AC50 ([4]; read-out: DevTox-GLR Endo AC50, SOX17 half-maximal activity concentration, 48 h exposure): 33.8 µM
Cc1c2oc3c(C)ccc(C(=O)N[C@@H]4C(=O)N[C@H](C(C)C)C(=O)N5CCC[C@H]5C(=O)N(C)CC(=O)N(C)[C@@H](C(C)C)C(=O)O[C@@H]4C)c3nc-2c(C(=O)N[C@@H]2C(=O)N[C@H](C(C)C)C(=O)N3CCC[C@H]3C(=O)N(C)CC(=O)N(C)[C@@H](C(C)C)C(=O)O[C@@H]2C)c(N)c1=O [Actinomycin D] (I: T[dV]P[Sar][NMeV] / II: T[dV]P[Sar][NMeV]; ester I:1-I:C, II:1-II:C; linker I:N-II:N via Actinocin(9to1)) |  | 0 | 96 | <0.01 | < 0.01 | 0.1 | 24 | 20.2 | 20.2 | 101 | 102 | 101 | 101 | Positive | 2.881e-05 | 1 | Positive | Teratogen | Pos | < 0.01 | Emax ([1]; read-out: MAX_MEAN): 6.35%; Emax ([1]; read-out: MAX_MED): 3.62%; CC50 [2]: 0.00048 µM; Cell Count ACC (RUES2-GLR cells; Table S2, 48 h exposure): 0.0003574 µM; SOX17 ACC relative to cytotoxic concentration (in words) [4]: below cytotoxic concentrations; AC50 ([4]; Homo sapiens, 48 h, read-out: DevTox-GLR Endo AC50 (µM)): 3.7e-05 µM; AC50 ([4]; Homo sapiens, read-out: ga (winning model)): 3.63e-05 µM
Cc1nc(Nc2ncc(C(=O)Nc3c(C)cccc3Cl)s2)cc(N2CCN(CCO)CC2)n1 [Dasatinib] | 5.98 | 0 | 96 | <1 | < 1 | 148 | 85.8 | 63.7 | 64.4 | 102 | 102 | 102 | 102 | Positive | 0.3299 | 1 | Positive | Teratogen | Pos | < 1 | Emax [1, 8]: 3.77%; CC50 at 48 h [2]: 0.05 µM; Cell Count ACC (RUES2-GLR cells; human, 48 h): 0.005325 µM; AC50 [4, 11]: 0.72 µM; AC50 [4, 15]: 0.721 µM
c1cc(-c2cnn3cc(-c4ccc(OCCN5CCCCC5)cc4)cnc23)ccn1 [Dorsomorphin] | 9.04 | 0 | 95.1 | 2.4 | 2.4 | 10.7 | 38.7 | 16.8 | 17 | 99.6 | 99.4 | 99.6 | 114 | Positive | 8.65 | 1 | Positive | Teratogen | Pos | 0.3 | Emax [1, 8]: 8.93%; CC50 at 48 h [2]: 16.7 µM; Cell Count ACC (RUES2-GLR cells; human, 48 h): 6.307 µM; AC50 [4, 11]: 17.1 µM; AC50 [4, 15]: 17 µM
O=c1[nH]c(=O)n([C@H]2C[C@H](O)[C@@H](CO)O2)cc1Br [5-Bromo-2’-deoxyuridine] | -2.88 | 0 | 87.6 | 3.4 | 3.4 | 13.2 | 2.13 | 2.12 | 2.23 | 102 | 102 | 102 | 101 | Positive | 0.4591 | 1 | Positive | Teratogen | Pos | 0.2 | Emax [1, 8]: -2.98%; CC50 at 48 h [2]: 9.37 µM; Cell Count ACC (RUES2-GLR cells; human, 48 h): 3.994 µM; SOX17 ACC relative to cytotoxic concentration (in words) [4]: below cytotoxic concentrations; AC50 [4, 11]: 0.55 µM; AC50 [4, 15]: 0.548 µM
O=C1Cc2cc(CCN3CCN(c4nsc5ccccc45)CC3)c(Cl)cc2N1 [Ziprasidone] | 3.27 | 0 | 93.7 | 5.1 | 5.1 | 3.67 | 4.2 | 4.63 | 4.3 | 101 | 101 | 101 | 101 | Positive | 2.997 | 1 | Positive | Teratogen | Pos | 2.8 | Emax [1, 8]: 4.35%; CC50 at 48 h [2]: 2.42 µM; Cell Count ACC (RUES2-GLR cells; human, 48 h): 1.527 µM; AC50 [4, 11]: 3.57 µM; AC50 [4, 15]: 3.56 µM
